Assay results taken from Sander's compilation of Henry's law constants (doi:10.1111/j.1365-2621.1980.tb00916.x).

Experiment: Henry solubility constant Hcp at 298.15 K (mol/(m3 Pa))
Conditions: reference: Mazza (1980)

SMILES	Henry solubility constant Hcp
CCCS [1-propanethiol]	0.0009
CCCO [1-propanol]	3.7
Cc1ccc(C)s1 [2,5-dimethylthiophene]	0.0037
CC(C)O [2-propanol]	2.1
C=CCSSCC=C [4,5-dithia-1,7-octadiene]	0.0075
CCO [ethanol]	6.2

Now from value to compound:

Henry solubility constant Hcp	SMILES
0.0071	C=CCSCC=C [3,3'-thiobis-1-propene]
0.005	C=CCSC [allyl methyl sulfide]
0.018	CCCSSCCC [dipropyl disulfide]
0.0043	CCCSC [methyl propyl sulfide]
